Measured values published in paper PMC2752324 (Bioorganic & medicinal chemistry letters, 2008).

Target: T1, tissue-nonspecific alkaline phosphatase (TNAP) (Homo sapiens, UniProt P05186)
T1 sequence (P05186 18-502 limits assumed): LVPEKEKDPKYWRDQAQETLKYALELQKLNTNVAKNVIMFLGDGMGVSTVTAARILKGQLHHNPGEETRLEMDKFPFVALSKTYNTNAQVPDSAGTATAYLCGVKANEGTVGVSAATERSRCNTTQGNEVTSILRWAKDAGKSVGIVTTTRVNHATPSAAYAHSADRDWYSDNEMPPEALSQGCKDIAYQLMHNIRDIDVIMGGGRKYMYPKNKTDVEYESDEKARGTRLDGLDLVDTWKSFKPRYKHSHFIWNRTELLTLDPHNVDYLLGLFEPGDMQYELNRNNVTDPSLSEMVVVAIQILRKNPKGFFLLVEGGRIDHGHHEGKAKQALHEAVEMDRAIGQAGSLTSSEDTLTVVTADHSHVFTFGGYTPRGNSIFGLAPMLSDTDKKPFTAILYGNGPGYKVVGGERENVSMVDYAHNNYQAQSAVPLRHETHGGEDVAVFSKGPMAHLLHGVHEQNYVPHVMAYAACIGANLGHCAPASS
Assay: TNAP luminescence-based inhibition assay
Type: biochemical

| Structure (SMILES) | selectivity for TNAP (versus PLAP and GAPDH) | times more potent against TNAP (versus screening hit 1) | improvement in potency (4 versus tricyclic derivative 3) |
| --- | --- | --- | --- |
| O=C(NCCO)c1cc(-c2ccc(Cl)c(Cl)c2Cl)n[nH]1 [Compound 9v] | at least 2000 fold | approximately 200 times | – |
| O=C(c1[nH]nc2c1COc1ccccc1-2)N1CCCC1 [Compound 4] | – | – | 3 fold |
